#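 Five compound concentrations were applied to cells in 96-well plates for 48 hours; endpoints were derived by simple linear interpolation of the resulting dose-response curve. GI50 is the concentration that inhibits growth by half. TGI denotes the concentration required for complete inhibition of growth.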
# What was measured:
# Assay in all cases: NCI-60 cell line screen, 48 h
# MOLT-4 leukemia = system: MOLT-4 leukemia
# NCI-H226 lung = system: NCI-H226 lung
# COLO 205 colon = system: COLO 205 colon
# EKVX NSCLC = system: EKVX NSCLC
# SW-620 colon = system: SW-620 colon
# BT-549 breast = system: BT-549 breast
# OVCAR-8 ovarian = system: OVCAR-8 ovarian
# NCI-H23 lung = system: NCI-H23 lung
# NCI/ADR-RES ovarian = system: NCI/ADR-RES ovarian
# MCF7 breast = system: MCF7 breast
# OVCAR-5 ovarian = system: OVCAR-5 ovarian
# IGROV1 ovarian = system: IGROV1 ovarian
# TK-10 renal = system: TK-10 renal
# HCT-116 colon = system: HCT-116 colon
# U251 CNS = system: U251 CNS
# SNB-75 CNS = system: SNB-75 CNS
# SNB-19 CNS = system: SNB-19 CNS
# SK-OV-3 ovarian = system: SK-OV-3 ovarian
# RPMI-8226 leukemia = system: RPMI-8226 leukemia
# HS 578T breast = system: HS 578T breast
# SF-268 CNS = system: SF-268 CNS
# 786-0 renal = system: 786-0 renal
# HCT-15 colon = system: HCT-15 colon
# KM12 colon = system: KM12 colon
# LOX IMVI melanoma = system: LOX IMVI melanoma
# CCRF-CEM leukemia = system: CCRF-CEM leukemia
# OVCAR-4 ovarian = system: OVCAR-4 ovarian
# MDA-MB-231 breast = system: MDA-MB-231 breast
# UACC-62 melanoma = system: UACC-62 melanoma
# T-47D breast = system: T-47D breast
# SK-MEL-28 melanoma = system: SK-MEL-28 melanoma
# MALME-3M melanoma = system: MALME-3M melanoma
# SK-MEL-5 melanoma = system: SK-MEL-5 melanoma
# SF-295 CNS = system: SF-295 CNS
# K-562 leukemia = system: K-562 leukemia
# SN12C renal = system: SN12C renal
# RXF 393 renal = system: RXF 393 renal
# HCC-2998 colon = system: HCC-2998 colon
# SR leukemia = system: SR leukemia
# MDA-MB-435 = system: MDA-MB-435
# CAKI-1 renal = system: CAKI-1 renal
# ACHN renal = system: ACHN renal
# A498 renal = system: A498 renal
# HT29 colon = system: HT29 colon
# UO-31 renal = system: UO-31 renal
# M14 melanoma = system: M14 melanoma
# A549 NSCLC = system: A549 NSCLC
# HL-60(TB) leukemia = system: HL-60(TB) leukemia
# PC-3 prostate = system: PC-3 prostate
# SF-539 CNS = system: SF-539 CNS
# DU-145 prostate = system: DU-145 prostate
# OVCAR-3 ovarian = system: OVCAR-3 ovarian
# NCI-H460 lung = system: NCI-H460 lung
# UACC-257 melanoma = system: UACC-257 melanoma
# NCI-H522 lung = system: NCI-H522 lung
# SK-MEL-2 melanoma = system: SK-MEL-2 melanoma
# HOP-62 NSCLC = system: HOP-62 NSCLC
compound,measurement,setting,value
O=C(/C=C/c1ccco1)c1cccc(Nc2nc(Nc3ccccc3)nc(Nc3ccccc3)n2)c1,GI50,MOLT-4 leukemia,4.34 µM
same,TGI,MOLT-4 leukemia,> 31.8 µM
same,GI50,NCI-H226 lung,18.3 µM
same,TGI,NCI-H226 lung,> 82 µM
same,GI50,COLO 205 colon,2.29 µM
same,TGI,COLO 205 colon,14.3 µM
same,GI50,EKVX NSCLC,9.82 µM
same,TGI,EKVX NSCLC,> 100 µM
same,GI50,SW-620 colon,18.2 µM
same,TGI,SW-620 colon,> 100 µM
same,GI50,BT-549 breast,19 µM
same,TGI,BT-549 breast,> 82.9 µM
same,GI50,OVCAR-8 ovarian,10 µM
same,TGI,OVCAR-8 ovarian,> 83.2 µM
same,GI50,NCI-H23 lung,26.1 µM
same,TGI,NCI-H23 lung,> 100 µM
same,GI50,NCI/ADR-RES ovarian,36.3 µM
same,TGI,NCI/ADR-RES ovarian,> 100 µM
same,GI50,MCF7 breast,1.92 µM
same,TGI,MCF7 breast,> 52.4 µM
same,GI50,OVCAR-5 ovarian,> 100 µM
same,TGI,OVCAR-5 ovarian,> 100 µM
same,GI50,IGROV1 ovarian,2.87 µM
same,TGI,IGROV1 ovarian,> 100 µM
same,GI50,TK-10 renal,55.3 µM
same,TGI,TK-10 renal,> 100 µM
same,GI50,HCT-116 colon,2.47 µM
same,TGI,HCT-116 colon,35.3 µM
same,GI50,U251 CNS,16 µM
same,TGI,U251 CNS,> 100 µM
same,GI50,SNB-75 CNS,2.16 µM
same,TGI,SNB-75 CNS,> 69.5 µM
same,GI50,SNB-19 CNS,> 100 µM
same,TGI,SNB-19 CNS,> 100 µM
same,GI50,SK-OV-3 ovarian,> 86.6 µM
same,TGI,SK-OV-3 ovarian,> 100 µM
same,GI50,RPMI-8226 leukemia,0.279 µM
same,TGI,RPMI-8226 leukemia,5.47 µM
same,GI50,HS 578T breast,12.6 µM
same,TGI,HS 578T breast,> 82.7 µM
same,GI50,SF-268 CNS,28.7 µM
same,TGI,SF-268 CNS,> 100 µM
same,GI50,786-0 renal,8.49 µM
same,TGI,786-0 renal,> 100 µM
same,GI50,HCT-15 colon,5.12 µM
same,TGI,HCT-15 colon,> 100 µM
same,GI50,KM12 colon,6.06 µM
same,TGI,KM12 colon,> 100 µM
same,GI50,LOX IMVI melanoma,17.9 µM
same,TGI,LOX IMVI melanoma,> 100 µM
same,GI50,CCRF-CEM leukemia,3.07 µM
same,TGI,CCRF-CEM leukemia,> 24.1 µM
same,GI50,OVCAR-4 ovarian,10.6 µM
same,TGI,OVCAR-4 ovarian,> 100 µM
same,GI50,MDA-MB-231 breast,5.4 µM
same,TGI,MDA-MB-231 breast,> 100 µM
same,GI50,UACC-62 melanoma,48.8 µM
same,TGI,UACC-62 melanoma,> 100 µM
same,GI50,T-47D breast,3.61 µM
same,TGI,T-47D breast,> 100 µM
same,GI50,SK-MEL-28 melanoma,23.7 µM
same,TGI,SK-MEL-28 melanoma,> 100 µM
same,GI50,MALME-3M melanoma,> 66.7 µM
same,TGI,MALME-3M melanoma,> 100 µM
same,GI50,SK-MEL-5 melanoma,22 µM
same,TGI,SK-MEL-5 melanoma,> 100 µM
same,GI50,SF-295 CNS,2.94 µM
same,TGI,SF-295 CNS,> 25.3 µM
same,TGI,K-562 leukemia,> 56.1 µM
same,GI50,SN12C renal,35 µM
same,TGI,SN12C renal,> 100 µM
same,GI50,RXF 393 renal,1.36 µM
same,TGI,RXF 393 renal,8.15 µM
same,GI50,HCC-2998 colon,25.7 µM
same,TGI,HCC-2998 colon,> 100 µM
same,GI50,SR leukemia,5.01 µM
same,TGI,SR leukemia,> 24.1 µM
same,GI50,MDA-MB-435,37.7 µM
same,TGI,MDA-MB-435,> 100 µM
same,GI50,CAKI-1 renal,23.2 µM
same,TGI,CAKI-1 renal,> 100 µM
same,GI50,ACHN renal,30.5 µM
same,TGI,ACHN renal,> 100 µM
same,GI50,A498 renal,0.444 µM
same,TGI,A498 renal,1.77 µM
same,GI50,HT29 colon,17.2 µM
same,TGI,HT29 colon,> 100 µM
same,GI50,UO-31 renal,3.97 µM
same,TGI,UO-31 renal,> 69.6 µM
same,GI50,M14 melanoma,37.7 µM
same,TGI,M14 melanoma,> 100 µM
same,GI50,A549 NSCLC,0.357 µM
same,TGI,A549 NSCLC,> 38.2 µM
same,GI50,HL-60(TB) leukemia,> 29.6 µM
same,TGI,HL-60(TB) leukemia,> 54.3 µM
same,GI50,PC-3 prostate,5.13 µM
same,TGI,PC-3 prostate,> 100 µM
same,GI50,SF-539 CNS,44.5 µM
same,TGI,SF-539 CNS,> 100 µM
same,GI50,DU-145 prostate,14.5 µM
same,TGI,DU-145 prostate,> 100 µM
same,GI50,OVCAR-3 ovarian,2.83 µM
same,TGI,OVCAR-3 ovarian,27.1 µM
same,GI50,NCI-H460 lung,1.4 µM
same,TGI,NCI-H460 lung,> 27.1 µM
same,GI50,UACC-257 melanoma,> 44.7 µM
same,TGI,UACC-257 melanoma,> 83.8 µM
same,GI50,NCI-H522 lung,44.6 µM
same,TGI,NCI-H522 lung,> 100 µM
same,GI50,SK-MEL-2 melanoma,20.5 µM
same,TGI,SK-MEL-2 melanoma,> 100 µM
same,GI50,HOP-62 NSCLC,> 55.4 µM
same,TGI,HOP-62 NSCLC,> 100 µM
